Source: patent US20090074815A1, “Immunomodulator Compounds as Vaccine Enhancers” (SCICLONE PHARMACEUTICALS, INC., priority 2005, published 2009)

What was measured:
thymic cells = test: Expression of T-cell subpopulation and activation markers (CD69, CD25) on thymic cells, flow cytometry; type: in vivo, mice; conditions: for CD25-positive cells, % / CD69-positive, %: thymic cells cultured in vitro 48 hours
From the text: Materials and Methods: Eighteen (18) to twenty (20) gram (g) male mice, purchased from the Rappolovo Animal Facility, Russia, were used in the studies described below. C57BL/6 (B6) mice were used to evaluate the effect of SCV-07 in non-immunized mice. CBAxC57BL/6 (F1) mice were used for studies of the effects of SCV-07 on the antigen-specific immune response. Mice were kept under the standard animal facility conditions and were provided with a standard diet and water ad libitum. Each treatment group included 4-5 mice. […] Analysis by Flow Cytometry: […] The expression of T-cell subpopulation markers (CD3, CD4, and CD8) and activation markers (CD69 and CD25) on thymic cells and splenocytes was studied ex vivo 72 hours after the last treatment with SCV-07. […] The expression of the CD69 marker increased after oral administration of SCV-07 tablets at doses of 0.1 and 1.0 μg/kg of body mass as well as after i/p administration at a dose of 1.0 μg/kg.

[1] = tested on: IL-2 production by ConA-stimulated thymic cells; test: IL-2 production by ConA-stimulated thymic cells (IL-2-dependent CTLL-2 bioassay); type: in vivo, mice
From the text: Considering that significant enhancement of proliferation by SCV-07 might be due to its influence on IL-2 production, IL-2 activity was studied with the IL-2-dependent CTLL-2 line.

[2] = tested on: IL-4 production by ConA-stimulated splenocytes; test: IL-4 production by ConA-stimulated splenocytes (EIA); type: in vivo, mice
splenocytes = test: OvA-induced proliferation of splenocytes of OvA-immunized mice; type: in vivo; conditions: for Proliferation of splenocytes, Spontaneous, cpm, M ± SD / Proliferation of splenocytes, SI / Proliferation of splenocytes, cpm, M ± SD: OvA/FA
Procedure: Assessment of Mitogen- and Antigen-Induced Proliferation: […] Antigen-specific proliferation was studied by stimulating thymocytes and splenoctyes in vitro with different concentrations of OvA for 96 h. Twenty (20) to twenty-four (24) hours prior to completion of incubation, 3H-labeled thymidine (5 μCi/ml) was added to the cells. The cells were then transferred to fiberglass filters with a Titertek® semi-automatic cell harvester. Thymidine uptake was measured using a RackBeta 1217 (Wallac) liquid scintillation β-counter. For quantitative analysis of proliferation, the stimulation index (SI) was calculated as a ratio of the intensity of label inclusion in the stimulated cells to that in non-stimulated cells.

[3] = Indices of humoral immunity (CD20+, IgA, IgM, IgG, CH50, circulating immune complexes) before and after vaccination; conditions: patients with infectious syndrome, hepatitis B vaccination with SCV-07, after vaccination, n = 16, M ± m
Procedure: This group, which received SCV-07 and hepatitis B vaccine, included thirty-three (33) essentially healthy students from the Chelyabinsk State Medical Academy.
The hepatitis vaccine Engerix-B® produced by SmithKlineBeecham-Biomed (Russia) was administered as a course of 3 doses given at months 0, 1, and 6. Immunological examinations of the subjects were carried out before the first administration of the vaccine and at one month after completion of the course of immunization.
Participants were evaluated to determine levels of leukocytes in peripheral blood, leukocytary formula, the presence of marker specific lymphocytes (CD3, CD4, CD8, CD16, CD95 and CD20), lysosomal activity of neutrophils; oxygen-dependent metabolism with spontaneous and induced hematocrit (HCT) tests, phagocytary function of neutrophils according to the latex particle absorption model; immunoglobulin IgA, IgM, IgG concentrations; total hemolytic activity of complement (CH50) in blood serum and for circulating immune complexes. […] A concentration of 10 MU/liter (l) was assumed to be a protective hepatitis B titer.
The immunomodulator SCV-07 was administered at the same time as the hepatitis B vaccine to determine if SCV-07 increased the efficacy of vaccination and to determine if it would correct the immunity disorders of subjects with infectious syndrome. A one milligram (1 mg) dose of SCV-07 was administered as an intra muscular injection to the 32 subjects of Group 2 of the study on days one to five, where day one was the day the first dose of the hepatitis B vaccine was administered. One (1) mg of SCV-07 was also administered with the second and third doses of vaccine one month and 6 months following administration of the initial vaccine dose. Study participants in Group I received injections of physiological saline which were administered on the same schedule as the SCV-07 to provide a placebo control group.

[4] = ConA 1 μg/ml, 0.01 μg/kg per os
[5] = ConA 1 μg/ml, 10.0 μg/kg per os
[6] = ConA 1 μg/ml, 100.0 μg/kg per os
[7] = 10.0 μg/kg per os, OvA 10 μg/ml
[8] = 10.0 μg/kg per os, OvA 50 μg/ml

For `N[C@H](CCC(=O)N[C@@H](Cc1c[nH]c2ccccc12)C(=O)O)C(=O)O` [SCV-07, γ-D-glutamyl-L-tryptophan], the “subpopulation composition of T-cells and expression of their activation markers” value (thymic cells; thymic cells and splenocytes ex vivo 72 hours after the last treatment, i/p or per os, data not shown) was “No significant differences”, the “CD25-positive cells, %” value (thymic cells; 0.1 μg/kg Tablet, per os) was 0.7% and the “CD69-positive, %” value (thymic cells; 0.1 μg/kg Tablet, per os) was 3.35%. The “CD25-positive cells, %” value (thymic cells; 0.1 μg/kg i/p) was 0.30%, the “CD69-positive, %” value (thymic cells; 0.1 μg/kg i/p) was 2.03% and the “CD25-positive cells, %” value (thymic cells; 1.0 μg/kg Tablet, per os) was 0.79%. For the same compound, the “CD69-positive, %” value (thymic cells; 1.0 μg/kg Tablet, per os) was 4.61%, the “CD25-positive cells, %” value (thymic cells; 1.0 μg/kg i/p) was 1.72% and the “CD69-positive, %” value (thymic cells; 1.0 μg/kg i/p) was 7.86%. For the same compound, the “CD25-positive cells, %” value (thymic cells; 10.0 μg/kg Tablet, per os) was 0.71%, the “CD69-positive, %” value (thymic cells; 10.0 μg/kg Tablet, per os) was 2.24% and the “IL-2 production (U/ml), M ± SD” value [1, 4] was 0.00 ± 0.00 U/ml. For the same compound, the “IL-2 production (U/ml), M ± SD” value ([1]; ConA 1 μg/ml, 0.1 μg/kg i/p) was 0.25 ± 0.08 U/ml, the “IL-2 production (U/ml), M ± SD” value ([1]; ConA 1 μg/ml, 0.1 μg/kg per os) was 0.10 ± 0.13 U/ml and the “IL-2 production (U/ml), M ± SD” value ([1]; ConA 1 μg/ml, 1.0 μg/kg i/p) was 0.92 ± 0.06 U/ml. For the same compound, the “IL-2 production (U/ml), M ± SD” value ([1]; ConA 1 μg/ml, 1.0 μg/kg per os) was 1.06 ± 0.37 U/ml, the “IL-2 production (U/ml), M ± SD” value [1, 5] was 0.25 ± 0.12 U/ml and the “IL-2 production (U/ml), M ± SD” value [1, 6] was 0.31 ± 0.15 U/ml. The “IL-2 production (U/ml), M ± SD” value ([1]; ConA 2 μg/ml, 0.01 μg/kg per os) was 0.44 ± 0.11 U/ml, the “IL-2 production (U/ml), M ± SD” value ([1]; ConA 2 μg/ml, 0.1 μg/kg i/p) was 1.40 ± 0.38 U/ml and the “IL-2 production (U/ml), M ± SD” value ([1]; ConA 2 μg/ml, 0.1 μg/kg per os) was 1.00 ± 0.13 U/ml. For the same compound, the “IL-2 production (U/ml), M ± SD” value ([1]; ConA 2 μg/ml, 1.0 μg/kg i/p) was 1.60 ± 0.15 U/ml, the “IL-2 production (U/ml), M ± SD” value ([1]; ConA 2 μg/ml, 1.0 μg/kg per os) was 3.31 ± 0.01 U/ml and the “IL-2 production (U/ml), M ± SD” value ([1]; ConA 2 μg/ml, 10.0 μg/kg per os) was 0.39 ± 0.12 U/ml. The “IL-2 production (U/ml), M ± SD” value ([1]; ConA 2 μg/ml, 100.0 μg/kg per os) was 1.19 ± 0.30 U/ml, the “IL-4” value [2, 4] was 98.7 pg/mL and the “IL-4” value ([2]; ConA 1 μg/ml, 0.1 μg/kg i/p) was 62.1 pg/mL. The “IL-4” value ([2]; ConA 1 μg/ml, 0.1 μg/kg per os) was 78.9 pg/mL, the “IL-4” value ([2]; ConA 1 μg/ml, 1.0 μg/kg i/p) was 52.8 pg/mL and the “IL-4” value ([2]; ConA 1 μg/ml, 1.0 μg/kg per os) was 95.8 pg/mL. For the same compound, the “IL-4” value [2, 5] was 53.8 pg/mL, the “IL-4” value [2, 6] was 83.1 pg/mL and the “IL-4” value ([2]; ConA 5 μg/ml, 0.01 μg/kg per os) was 284.9 pg/mL. For the same compound, the “IL-4” value ([2]; ConA 5 μg/ml, 0.1 μg/kg i/p) was 277.5 pg/mL, the “IL-4” value ([2]; ConA 5 μg/ml, 0.1 μg/kg per os) was 229.6 pg/mL and the “IL-4” value ([2]; ConA 5 μg/ml, 1.0 μg/kg i/p) was 152.9 pg/mL. For the same compound, the “IL-4” value ([2]; ConA 5 μg/ml, 1.0 μg/kg per os) was 260.0 pg/mL, the “IL-4” value ([2]; ConA 5 μg/ml, 10.0 μg/kg per os) was 275.0 pg/mL and the “IL-4” value ([2]; ConA 5 μg/ml, 100.0 μg/kg per os) was 192.0 pg/mL. For the same compound, the “IL-4” value ([2]; Spontaneous, 0.01 μg/kg per os) was 6.1 pg/mL, the “IL-4” value ([2]; Spontaneous, 0.1 μg/kg i/p) was 4.2 pg/mL and the “IL-4” value ([2]; Spontaneous, 0.1 μg/kg per os) was 0.0 pg/mL. For the same compound, the “IL-4” value ([2]; Spontaneous, 1.0 μg/kg i/p) was 0.0 pg/mL, the “IL-4” value ([2]; Spontaneous, 1.0 μg/kg per os) was 25.3 pg/mL and the “IL-4” value ([2]; Spontaneous, 10.0 μg/kg per os) was 19.4 pg/mL. The “IL-4” value ([2]; Spontaneous, 100.0 μg/kg per os) was 27.1 pg/mL, the “proliferation of splenocytes versus control group” value (splenocytes; OvA/Alum, data not shown) was “No significant differences” and the “Proliferation of splenocytes, Spontaneous, cpm, M ± SD” value (splenocytes; 0.1 μg/kg i/p) was 10726 ± 1947 cpm. The “Proliferation of splenocytes, SI” value (splenocytes; 0.1 μg/kg i/p, OvA 10 μg/ml) was 1.09, the “Proliferation of splenocytes, cpm, M ± SD” value (splenocytes; 0.1 μg/kg i/p, OvA 10 μg/ml) was 11683 ± 2285 cpm and the “Proliferation of splenocytes, SI” value (splenocytes; 0.1 μg/kg i/p, OvA 50 μg/ml) was 1.32. The “Proliferation of splenocytes, cpm, M ± SD” value (splenocytes; 0.1 μg/kg i/p, OvA 50 μg/ml) was 14195 ± 3304 cpm, the “Proliferation of splenocytes, Spontaneous, cpm, M ± SD” value (splenocytes; 0.1 μg/kg per os) was 8786 ± 1259 cpm and the “Proliferation of splenocytes, SI” value (splenocytes; 0.1 μg/kg per os, OvA 10 μg/ml) was 1.29. The “Proliferation of splenocytes, cpm, M ± SD” value (splenocytes; 0.1 μg/kg per os, OvA 10 μg/ml) was 11304 ± 1317 cpm, the “Proliferation of splenocytes, SI” value (splenocytes; 0.1 μg/kg per os, OvA 50 μg/ml) was 1.36 and the “Proliferation of splenocytes, cpm, M ± SD” value (splenocytes; 0.1 μg/kg per os, OvA 50 μg/ml) was 11923 ± 1623 cpm. The “Proliferation of splenocytes, Spontaneous, cpm, M ± SD” value (splenocytes; 1.0 μg/kg i/p) was 9760 ± 1650 cpm, the “Proliferation of splenocytes, SI” value (splenocytes; 1.0 μg/kg i/p, OvA 10 μg/ml) was 1.05 and the “Proliferation of splenocytes, cpm, M ± SD” value (splenocytes; 1.0 μg/kg i/p, OvA 10 μg/ml) was 10260 ± 2808 cpm. The “Proliferation of splenocytes, SI” value (splenocytes; 1.0 μg/kg i/p, OvA 50 μg/ml) was 1.67, the “Proliferation of splenocytes, cpm, M ± SD” value (splenocytes; 1.0 μg/kg i/p, OvA 50 μg/ml) was 16313 ± 1057 cpm and the “Proliferation of splenocytes, Spontaneous, cpm, M ± SD” value (splenocytes; 1.0 μg/kg per os) was 7013 ± 1698 cpm. The “Proliferation of splenocytes, SI” value (splenocytes; 1.0 μg/kg per os, OvA 10 μg/ml) was 1.26, the “Proliferation of splenocytes, cpm, M ± SD” value (splenocytes; 1.0 μg/kg per os, OvA 10 μg/ml) was 8864 ± 2675 cpm and the “Proliferation of splenocytes, SI” value (splenocytes; 1.0 μg/kg per os, OvA 50 μg/ml) was 1.49. The “Proliferation of splenocytes, cpm, M ± SD” value (splenocytes; 1.0 μg/kg per os, OvA 50 μg/ml) was 10457 ± 1740 cpm, the “Proliferation of splenocytes, Spontaneous, cpm, M ± SD” value (splenocytes; 10.0 μg/kg per os) was 10665 ± 887 cpm and the “Proliferation of splenocytes, SI” value (splenocytes; [7]) was 1.27. The “Proliferation of splenocytes, cpm, M ± SD” value (splenocytes; [7]) was 13585 ± 1102 cpm, the “Proliferation of splenocytes, SI” value (splenocytes; [8]) was 1.21 and the “Proliferation of splenocytes, cpm, M ± SD” value (splenocytes; [8]) was 12903 ± 881 cpm. For the same compound, the “CD20+ %” value [3] was 15.93 ± 1.20%, the “CH50, conv. units” value [3] was 64.53 ± 4.11 conv. units and the “CIC, conv. units” value [3] was 53.93 ± 8.03 conv. units. For the same compound, the “IgA” value [3] was 1.821 ± 0.087 g/L, the “IgG” value [3] was 8.931 ± 0.481 g/L and the “IgM” value [3] was 1.179 ± 0.089 g/L.
